From ChEMBL document CHEMBL5674860, “Optimized Dual-Glo Assay to identify co-culture-induced drug vulnerabilities in 3D CRC models” (2024)

Experiments:
Format in all cases: functional, Homo sapiens
Parameters in all cases: dose or concentration left out as unconfirmed
[1] = system: Colon cancer organoid; experiment: Optimized Dual-Glo assay to identify co-culture induced drug vulnerabilities using donated chemical probes and chemogenomics kinase set in O06 CRC organoid and F06 CAF mono and co-culture. […] Cell viability is reported both mono and co-culture models.
[2] = system: Colon cancer organoid; experiment: Optimized Dual-Glo assay to identify co-culture induced drug vulnerabilities using donated chemical probes and chemogenomics kinase set in O14 CRC organoid and F14 CAF mono and co-culture. […] Cell viability is reported both mono and co-culture models.
[3] = system: Colon cancer organoid; experiment: Optimized Dual-Glo assay to identify co-culture induced drug vulnerabilities using donated chemical probes and chemogenomics kinase set in O20 CRC organoid and F20 CAF mono and co-culture. […] Cell viability is reported both mono and co-culture models.
[4] = Culture type Co-Culture, Transduced with Lucferase2-P2A-EGFP lentivirus
[5] = Culture type Co-Culture, Transduced with Renilla-dsRed lentivirus
[6] = Culture type Mono-Culture, Transduced with Lucferase2-P2A-EGFP lentivirus
[7] = Culture type Mono-Culture, Transduced with Renilla-dsRed lentivirus

Row | SMILES | Cell Viability [1, 4] | Cell Viability [1, 5] | Cell Viability [1, 6] | Cell Viability [1, 7] | Cell Viability [2, 4] | Cell Viability [2, 5] | Cell Viability [2, 6] | Cell Viability [2, 7] | Cell Viability [3, 4] | Cell Viability [3, 5] | Cell Viability [3, 6] | Cell Viability [3, 7]
1 | CCNC(=O)c1cc2c(N3CCOC[C@@H]3C)ccnc2n1C | 128.018% | 156.16% | 122.983% | 98.196% | 83.5289% | 107.252% | 73.6623% | 93.9449% | 107.341% | 102.95% | 119.318% | 105.417%
2 | Cn1cc(-c2[nH]c3cc(NC(=O)[C@H](N)C4CCCCC4)cc4c3c2C=NNC4=O)cn1 | 9.334% | 180.436% | 3.761% | 107.077% | 1.93% | 159.115% | 4.927% | 82.9355% | 23.152% | 172.741% | 12.2596% | 94.31%
3 | OCCn1cc(-c2ccc3c(c2)CCC3=NO)c(-c2ccncc2)n1 | 81.3359% | 109.303% | 157.495% | 121.815% | 155.629% | 130.506% | 186.115% | 118.266% | 201.802% | 70.8995% | 81.9137% | 103.135%
4 | O=C(NCCN1CCOCC1)c1ccc2c(c1)C(=O)c1ccc(Nc3ccc(F)c(NC(=O)c4ccccc4)c3)cc1CC2 [FS-694] | 67.8661% | 67.282% | 66.9088% | 83.7797% | 102.563% | 98.243% | 144.079% | 81.8914% | 66.004% | 119.038% | 94.4809% | 79.2545%
5 | C[C@@H]1CCc2ncc(F)cc2[C@H]2CCCN2c2ccn3ncc(c3n2)C(=O)N1 [SELITRECTINIB] | 101.733% | 118.761% | 174.799% | 120.583% | 80.4223% | 107.034% | 125.619% | 100.351% | 166.265% | 73.3915% | 102.231% | 92.0834%
6 | O=C(N1CCS(=O)(=O)CC1)N1C[C@H](c2ccc(OC(F)(F)F)cc2)C[C@H](c2nc(C3CC3)no2)C1 [BAY-386] | 131.392% | 144.172% | 106.882% | 101.013% | 116.117% | 119.771% | 94.8331% | 98.6833% | 61.9652% | 114.29% | 99.9064% | 89.9943%
7 | Cl.Cl.Cl.c1ccc(N2CCN(Cc3nc4ccccc4[nH]3)CC2)nc1 | 145.739% | 162.508% | 117.947% | 106.828% | 78.8417% | 120.535% | 87.6489% | 99.3304% | 41.4322% | 124.541% | 78.9868% | 88.4978%
8 | C=CC(=O)Nc1ccc2[nH]c(=O)n(C3CCN(Cc4ccc(-c5nc6cc[nH]c(=O)c6cc5-c5ccccc5)cc4)CC3)c2c1 [Borussertib] | 51.8578% | 132.383% | 55.1299% | 71.4174% | 51.6115% | 159.043% | 54.7811% | 69.4418% | 47.4641% | 149.193% | 22.6881% | 97.2977%
9 | CCC(=N\O)/C(C)=C/c1ccc(F)c(C)c1 [A-226] | 127.798% | 151.161% | 120.98% | 100.434% | 99.1206% | 103.384% | 109.979% | 105.569% | 93.31% | 115.263% | 126.956% | 103.634%
10 | CCN(Cc1ccc(Cl)cc1)c1ncc(C(=O)NCCCN2CCCC2=O)c(NC2CCCC2)n1 | 130.769% | 112.754% | 126.765% | 120.519% | 82.1387% | 108.641% | 123.72% | 100.116% | 67.2116% | 104.655% | 126.603% | 126.47%
11 | CN(C)C(=O)c1cc2cnc(Nc3ccc(N4CCNCC4)cn3)nc2n1C1CCCC1 [RIBOCICLIB] | 54.2961% | 126.231% | 30.4641% | 111.56% | 59.6816% | 144.098% | 62.61% | 96.4403% | 36.9577% | 144.514% | 20.5669% | 95.5583%
12 | CC(C)[C@H](C(=O)Nc1ccc(C(=O)NO)cc1)c1ccccc1 [AR-42] | 8.004% | 640.047% | 17.2646% | 486.211% | 19.466% | 585.967% | 17.1608% | 305.591% | 13.9159% | 352.85% | 21.6913% | 192.04%
13 | Cc1ccc2[nH]c(CNCCCc3ccncc3)cc(=O)c2c1 [UCSF924NC] | 92.2965% | 82.507% | 94.1046% | 89.0396% | 108.907% | 109.825% | 95.9143% | 99.591% | 121.67% | 109.302% | 107.027% | 101.655%
14 | CNCCN1CCC(OCc2ccccc2)CC1 | 118.085% | 144.179% | 105.555% | 98.6528% | 36.6993% | 161.59% | 58.8026% | 109.763% | 15.2188% | 211.667% | 16.3767% | 101.684%
15 | CN1CCN(C(=O)C(C)(C)c2ccc(C(=O)Nc3cn4cc(-c5ccncc5)ccc4n3)cc2)CC1 [T3-CLK] | 42.8408% | 189.116% | 24.3767% | 109.981% | 26.2693% | 164.302% | 35.9707% | 93.5791% | 17.3495% | 291.942% | 28.5908% | 98.0167%
16 | CN(C)CCOc1ccc(-c2nc(-c3ccncc3)c(-c3ccc4c(c3)CC/C4=N\O)[nH]2)cc1 [SB590885] | 79.2379% | 96.48% | 138.873% | 135.694% | 125.618% | 131.894% | 138.834% | 91.3736% | 155.192% | 68.1541% | 66.5679% | 111.294%
17 | COc1cc(OC)cc(-c2noc(N3CCN(C)C4(CCN(c5ccnc(C)c5)CC4)C3)n2)c1 | 121.179% | 136.172% | 96.7414% | 97.7605% | 84.0267% | 119.648% | 90.6911% | 98.8129% | 136.007% | 146.282% | 103.16% | 78.5515%
18 | COc1ccccc1C(=O)Nc1cc2c(cc1N1CCCC1)n(C)c(=O)n2C | – | – | – | – | 94.3985% | 117.237% | 96.8906% | 95.8256% | 113.69% | 143.545% | 104.265% | 110.449%
19 | CS(=O)(=O)N1CCN(Cc2cc3nc(-c4cccc5[nH]ncc45)nc(N4CCOCC4)c3s2)CC1 [PICTILISIB] | 43.124% | 60.0718% | 35.1251% | 58.2983% | – | – | – | – | – | – | – | –
